# Values joined by “and” are separate entries in the source; they are usually repeats but may differ in a detail not shown here. Identical values can stand only once. Marks after values point to notes of the source that are not given here.
# Tests used:
# [1] = In vivo test of hemoglobin product for common adverse effects during hemodilution; settings: anesthetized dog, hemodilution to hematocrit 50% of baseline
# Experimental: The hemoglobin product was also tested in vivo on dogs for common adverse effects of therapeutic products which are administered intravascularly. The hemodilution protocol used and the physiologic tests performed are standard in the art and were similar to that described in Rabiner et al., J. Exp. Med., 86, 455-463 (1967); Sunder-Plassmann et al., supra; and Crystal et al., Anesth. Analg., 67, 211-218 (1988) Briefly, the hemoglobin product was infused into a venous access of an anesthetized dog with simultaneous withdrawal of arterial blood on a one-to-one basis at about 25 ml/minute until hematocrit was 50% of baseline (about 20 vol %). Tests for pyrogenic effects, hypotensive effects, arrhythmia, inotropic effects, bradycardia, tachycardia, hypovolemia, dysoria, and coagulopathy were all negative.
# cyclic GMP [2] = assay: Regional interstitial cGMP by microdialysis; assay type: in vivo, dog; settings: during hemodilution alone, n = 4
# Description: An in vivo method that is based on direct microdialysis of the organ tissue was used to examine the regional interstitial production of cGMP. The microdialysis technique uses a small dialysis fiber (250 μm diameter) that is inserted into the tissue and perfused to sample extracellular metabolites.
# [3] = Systemic hemodynamics in anesthetized hemodiluted dogs (Example I); assay type: in vivo, mongrel dogs
# Experimental: Twenty-four conditioned, heartworm-free male mongrel dogs (20 to 30 kg) were anesthetized with sodium pentobarbital (30 mg/kg i.v.) followed by an i.v. maintenance dose of 4 mg/kg/hour. After intubation of the trachea with a cuffed endotracheal tube, the dog was mechanically ventilated (Siemens 900D Servoventilator) with 100% oxygen, tidal volumes of 10 to 12 ml/kg and respiration at a rate to achieve normocarbia. […] Sodium bicarbonate was not administered. The body temperature of the dog was maintained at 39 C. with water-circulated heating pads.
# The dog was placed supine and a polyethylene catheter (PE 200) was inserted into the thoracic aorta via the left femoral artery for measurement of blood pressure. Two small-bore (PE 90) heparin-filled catheters of different lengths were placed in the abdominal aorta via the right femoral artery to collect reference blood samples containing radioactive microspheres for measurement of regional blood flow. Wide-bore (PE 240) catheters were placed in the right femoral vein and in the right carotid artery, for isovolemic exchange transfusion and for the administration of intravenous fluids and collection of arterial blood samples. A 5 french thermodilution catheter was advanced into the pulmonary artery via the right external jugular vein for measurement of cardiac output and right atrial pressure. A Foley catheter was inserted into the bladder for urine collection.
# Under fluoroscopy, a 5 french volume-conductance catheter (Mansfield Webster) was inserted via the left carotid artery across the aortic valve to the apex of the left ventricle to measure instantaneous volume.
# The animal was then placed on its right side and paralyzed with doxacurium (0.05 mg/kg) to perform a left thoracotomy in the fourth intercostal space. The exposed lung was retracted with gauze. Five cm H2O positive end-expiratory pressure was instituted to prevent atelectasis. A small incision was made in the pericardium near the left atrial appendage. The appendage was protracted and a PE 90 catheter, for microsphere injection, inserted into the ventricle via pressure verification and then pulled back into the atrium. A 3 french micromanometer-tipped pressure catheter (Millar) was then inserted via the appendage into the left ventricle for pressure recording. Both catheters were secured with a ligature around the appendage and distally taped to the animal. The exposed thoracic surface was covered with plastic film to prevent evaporation.
# Continuous measurements of heart rate (HR), pulsatile aortic pressure, mean aortic pressure (MAP), left ventricular peak pressure (LVPP), rate-of-change of LVPP (dP/dt), LV end diastolic pressure (LVEDP), LV volume, and right atrial pressure (RAP) were recorded on an analog thermal array recorder (Gould Model TA4000) and stored on a computerized data acquisition system (Halcom, Inc.) Cardiac output (CO) was measured in triplicate using a Spectramed Hemoprol computer. Systemic vascular resistance (SVR) was calculated from (MAP−RAP)÷CO. Systemic vascular hindrance (SVH) was calculated from SVR÷η, where η is the apparent viscosity of blood in centipoise (cp). At high flow rates (shear rates≈200 s^−1) assumed in the aorta, η is 4.0 cp for hematocrit (Hct) of 40 vol % and 2.1 cp for Hct of 20 vol %. Stroke volume was derived from CO÷HR. LV stroke work (LVSW) was calculated from (systolic AoP−LVEDP)×SV×0.0136.
# [4] = Properties of the hemoglobin product and colloid solutions; assay type: physicochemical
# Experimental: (§2) Blood pH, PCO2, PO2 and Na^+, K^+ and Ca^++ concentrations were measured with a Nova Stat Profile 1 analyzer (Waltham, Mass.). Plasma colloid osmotic pressure (COP) was determined before and after hemodilution with a Wescor 4400 Colloid Osmometer (Logan, Utah). […] Hematocrit was determined volumetrically. Hemoglobin (gm %), methemoglobin (%) and percent oxygen saturation were measured with an Instrumentation Laboratories 482 CO-Oximeter (Lexington, Mass.). Hemoglobin oxygen content was measured with the co-oximeter and added to the dissolved oxygen (0.003×PO2) to give total blood oxygen content (vol %).
# [5] = Blood gases, electrolytes, hemoglobin, colloid osmotic pressure and blood volume (Example I); assay type: in vivo, mongrel dogs; settings: for Plasma Hb: anesthetized dogs
# Experimental: as §2
# Total blood volume was computed from plasma volume (indicator dilution of iodinated I^125-albumin, Mallinckrodt Medical, Inc., St. Louis, Mo.) and whole body hematocrit.
# Following cannulation all animals were hydrated with 5 mg % albumin to increase filling pressure (LVEDP) above 5 mm Hg and to bring hematocrit to near 40 vol %. Twelve dogs underwent isovolemic exchange of blood for 10 gm % hemoglobin to hematocrit 50% of baseline.
# (§3) Once MAP stabilized (≈5-10 min), hemodynamic measurements, blood gases and other samples were obtained.
# [6] = Regional blood flows by radioactive microspheres (Example I); assay type: in vivo, mongrel dogs; settings: dogs, hematocrit 50% of control
# Experimental: Briefly, prior to injection, microspheres labeled with Sc^46, Sr^85, Sn^113 or Ce^141 were vortexed and sonicated. Approximately 30 microcuries (1×10^6 microspheres) were injected into the left atrium of a dog. Beginning with each microsphere injection, duplicate reference blood samples were collected at a constant rate (6 ml min^−1) for 3 minutes from the femoral PE 90 catheters. Radioactivity of the duplicate samples differed by less than 10%, indicating adequate mixing of the microspheres in the left ventricular output. To maintain isovolemic conditions during reference sampling, a 5% albumin solution was infused simultaneously.
# After the final injection of microspheres, the heart was stopped by intravenous injection of potassium chloride. Skin and bone (rib) were sampled from a shaved area distal to the thoracotomy. Skeletal muscle samples were taken from the hindlimb, back, forelimb and head. The GI tract was excised from the esophageal sphincter to the anus. All mesentery and omentum were trimmed. The stomach was separated from the tract. These and all other organs were weighed. Multiple samples were taken from each organ and transferred to a tared counting tube.
# The tissue and reference samples were weighed and analyzed for radioactivity with a gamma scintillation counter equipped with a multichannel analyzer (Packard Instrument, Downers Grove, Ill.). Isotope separation was accomplished by standard techniques of gamma spectroscopy. Values for organ blood flows (BForgan) in ml min^−1 were calculated from the equation BForgan=ABF×(MC÷AC)×organ weight (g), where ABF is the rate of arterial reference sampling (ml/minute), MC is the microsphere radioactivity (counts min^−1 g^−1) in the tissue samples, and AC is the total microsphere radioactivity (counts/minute) in the arterial reference samples. The fractional distribution of cardiac output to each organ was computed from BForgan÷ΣBForgan, where ΣBForgan is the sum of all organ flows. Skeletal muscle, skin and bone weights were calculated as 40%, 9% and 8% of body weight, respectively.
# [7] = Whole body oxygenation (Example I); assay type: in vivo, mongrel dogs; settings: for CaO2: arterial oxygen content
# Experimental: as §2
# Whole body oxygen extraction ratio (O2 extr, %) was calculated from arteria-mixed venous oxygen content difference C(a−v)O2 divided by the arterial oxygen content (CaO2). Whole body oxygen consumption (WBVO2) in ml/minute was determined using the Fick equation, WBVO2=CO×C(a−v)O2 Oxygen delivery (DO2) in ml/minute was calculated from CaO2×CO.
# Upon arrival in the laboratory, typically all dogs had hematocrits of 45 vol % or greater and filling pressures (LVEDP) of 5 mm Hg or less. Following cannulation all animals were hydrated with 5 mg % albumin to increase filling pressure (LVEDP) above 5 mm Hg and to bring hematocrit to near 40 vol %. Twelve dogs underwent isovolemic exchange of blood for 10 gm % hemoglobin to hematocrit 50% of baseline. […] The colloid pressure of 10 gm % hemoglobin and 8 gm % albumin (both about 40 Torr) is about twice that of dog plasma and after in vivo dilution would be expected to sustain plasma volumes at baseline values or greater.
# as §3
# cyclic GMP [8] = assay: Plasma cyclic GMP and arterial pressure before and after hemodilution and SNP (Example II); assay type: in vivo, dog; settings: hemodilution alone, n = 5, mean ± sem
# cyclic GMP [9] = assay: BAEE during oxyHb-HD pilot study; assay type: in vivo, dog; settings: for cGMP: plasma
# Description: (§1) In another pilot study, we examined if infusion of a nitric oxide substrate (N-benzoyl-L-arginine ethyl ester, i.e. BAEE) would override the hypothesized NO scavenging by oxyHb and thereby mimic Ab-HD hemodynamics and cGMP production shown in Tables 8-11. While BAEE administration increased plasma cGMP levels and caused significant vasodilation as evidenced by the decreased mean arterial pressure, cardiac output was not increased (Table 12).
# [10] = BAEE during oxyHb-HD pilot study; assay type: in vivo, dog; settings: n = 3
# Description: as §1
# [11] = BAEE reversal of L-NAME effects in Ab-HD dogs; assay type: in vivo; settings: BAEE after L-NAME in AB-HD dogs
# Description: With BAEE, the original hemodynamics of Ab-HD alone were expected to be evident, i.e. increased cardiac output.
# nitric oxide synthase = assay: L-NAME during Ab-HD pilot study; settings: dog, in vivo
# Experimental: Approximately 6 mg/kg L-NAME was administered i.v. bolus during Ab-HD.
# [12] = anesthetized dogs, hemodilution to hematocrit 50% of baseline
# [13] = BAEE 400 μg/kg/min during oxyHb-HD, n = 3
compound,measurement,setting,value
HbHD: Purified canine hemoglobin (10 gm %) used for isovolemic hemodilution,"Tests for pyrogenic effects, hypotensive effects, arrhythmia, inotropic effects, bradycardia, tachycardia, hypovolemia, dysoria, and coagulopathy",[1],negative
same,"Cyclic GMP levels in regional interstitial microdialysate, MU",cyclic GMP [2]; MU,17.98* μg/ml
same,"Cyclic GMP levels in regional interstitial microdialysate, BO",cyclic GMP [2]; bone,18.64* μg/ml
same,"Cyclic GMP levels in regional interstitial microdialysate, BR",cyclic GMP [2]; brain,19.94* μg/ml
same,"Cyclic GMP levels in regional interstitial microdialysate, GI",cyclic GMP [2]; gastrointestinal tract,12.68* μg/ml
same,"Cyclic GMP levels in regional interstitial microdialysate, HE",cyclic GMP [2]; heart,14.44* μg/ml
same,"Cyclic GMP levels in regional interstitial microdialysate, LI",cyclic GMP [2]; liver,20.34* μg/ml
same,"Cyclic GMP levels in regional interstitial microdialysate, LU",cyclic GMP [2]; lung,18.74* μg/ml
same,"Cyclic GMP levels in regional interstitial microdialysate, SP",cyclic GMP [2]; spleen,16.40* μg/ml
same,LV Elastance,[3]; [12],4.91 mm Hg ml
same,LV dP/dtmax,[3]; [12],1713 mm Hg/sec
same,LVPP,[3]; [12],154 mm Hg
same,LVSW,[3]; [12],29.2 g m/beat
same,MAP,[3]; [12],136 mm Hg
same,heart rate,[3]; [12],153 beats/min
same,"mean aortic, right atrial and LV end-diastolic (systemic) pressures vs control","[3]; dog, in vivo",not changed
same,systemic vascular resistance vs control,"[3]; dog, in vivo",not changed
same,effect on cardiac output and stroke volume,[3]; vs control,did not change
same,increase in systemic vascular hindrance,[3]; vs control,~100%
same,% carboxyhemoglobin,[4],<0.5%
same,% methemoglobin,[4],<1%
same,Ca^+,[4],1.2 mmol/L
same,Colloid osmotic pressure,[4],40 mm Hg
same,Davenport diagram,[4],Normal
same,Haldane effect,[4],Normal
same,Hill plot,[4],Normal
same,K,[4],3.4 mmol/L
same,Na,[4],150 mmol/L
same,Osmolality,[4],310 mOsmol/kg
same,Oxygen capacity,[4],13.5 vol %
same,Oxygen content,[4],13.5 vol %
same,PCO2,[4],15 mm Hg
same,PO2,[4],200 mm Hg
same,Total Hb concentration,[4],10 gm %
same,Viscosity,[4],≈2.0 cp
same,pH,[4],6.9
same,COP of colloid solution,"[4]; 8% albumin, 10% hemoglobin, Wescor 4400 Colloid Osmometer",40.8±1.0 mm Hg
same,Bohr coefficient,[4]; pH 7.2-7.4,0.54 (pH 7.2-7.4)
same,P50,[4]; pH 7.4,24 mm Hg (pH 7.4)
same,Plasma Hb,[5],4.6 g/100 ml
same,Plasma Hb,[5]; listed as hemoglobin,4.6 g/100 ml
same,plasma hemoglobin as share of total whole blood hemoglobin concentration,"[5]; dog, in vivo",approximately 40%
same,"hemoglobin excreted in urine, share of the approximately 100 grams infused",[5]; hemoglobinuria,less than 1%
same,"Organ blood flow, change from control: Bone",[6],No
same,"Organ blood flow, change from control: Brain",[6],Yes (+40%)
same,"Organ blood flow, change from control: Gastrointestinal",[6],No
same,"Organ blood flow, change from control: Liver",[6],No
same,"Organ blood flow, change from control: Lung",[6],Yes (−53%)
same,"Organ blood flow, change from control: Myocardium",[6],Yes (+80%)
same,"Organ blood flow, change from control: Pancreas",[6],No
same,"Organ blood flow, change from control: Renal",[6],No
same,"Organ blood flow, change from control: Skeletal muscle",[6],No
same,"Organ blood flow, change from control: Skin",[6],No
same,"Organ blood flow, change from control: Spleen",[6],Yes (−39%)
same,"Organ blood flow, change from control: Total (= Cardiac output)",[6],No
same,C(a-v)O2,[7]; anesthetized dogs,6.1 ml/100 ml
same,CvO2,[7]; anesthetized dogs,8.8 ml/100 ml
same,CaO2,[7]; anesthetized dogs,14.9 ml/100 ml
same,CaO2,"[7]; anesthetized dogs, listed as hemoglobin",14.9±0.4 ml/100 ml
same,DO2,[7]; oxygen delivery = CaO2 x CO,302 mL/min
same,decrease in oxygen delivery,[7]; vs control,30%
same,reduction in arterial oxygen content,[7]; vs control,24%
same,WBVO2,[7]; whole body oxygen consumption,125 mL/min
same,O2 extr,[7]; whole body oxygen extraction ratio,45%
same,MAP,cyclic GMP [8],142 ± 6 mm Hg
same,Plasma cGMP,cyclic GMP [8]; listed as oxyHb-HD,17.22 ± 1.02*+ μg/ml and 17.22 ± 1.02 μg/ml
same,MAP,"cyclic GMP [9]; oxyHb-HD alone, n = 3",146 ± 5 mm Hg
same,cGMP,"cyclic GMP [9]; oxyHb-HD alone, n = 3, mean ± sem",17.80 ± 0.95 µg/mL
same,CO,[10]; oxyHb-HD alone,2880 ± 245 mL/min
same,Cyanide,"blood, n = 6",0.13 ± 0.03 mg/L
same,Lactate,"dog, in vivo",2.2 ± 0.3 meq/L
"CCOC(=O)[C@H](CCCNC(=N)N)NC(=O)c1ccccc1 [BAEE, N-benzoyl-L-arginine ethyl ester, reference compound]",reversal of cardiac output to the high levels of Ab-HD alone,[11],not reversed
same,MAP,cyclic GMP [9]; [13],108 ± 8*+ mm Hg
same,cGMP,cyclic GMP [9]; [13],24.44 ± 1.05*+ μg/ml
same,CO,[10]; BAEE 400 μg/kg/min during oxyHb-HD,2376 ± 233 mL/min
"COC(=O)[C@@H](N)CCCNC(=N)N[N+](=O)[O-] [L-NAME, L-nitro arginine methyl ester]",CO,nitric oxide synthase,2413 ± 1721+ ml/min
same,MAP,nitric oxide synthase,152 ± 8*+ mm Hg
same,cGMP,nitric oxide synthase,17.38 ± 0.98*+ μg/ml
